Measurements from patent US10533006B2, “Nitrogen-containing heterocycle and carbocycle derivatives having TrkA inhibitory activity” (Shionogi & Co., Ltd., priority 2016, dated 2020).

Molecular target: T1, human TrkA (Homo sapiens, UniProt P04629)
T1 construct: purchased Lifetechnologies PV3144
Assay: Human TrkA inhibition assay
Type: biochemical
Conditions: human TrkA phosphorylation inhibition, ATP 500 μmol/L; read-out: IC50_nM
In short: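 Human TrkA (1 nmol/L final) preincubated 15 min with compound, then FL-peptide 27 (1.5 μmol/L) and ATP (500 μmol/L) added; 120 min at 37 °C in HEPES/MgCl2/DTT buffer. Mobility-shift measurement of phosphorylated vs non-phosphorylated substrate; IC50 by logistic regression over 3-fold dilution series.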

T1 sequence (P04629 33-796): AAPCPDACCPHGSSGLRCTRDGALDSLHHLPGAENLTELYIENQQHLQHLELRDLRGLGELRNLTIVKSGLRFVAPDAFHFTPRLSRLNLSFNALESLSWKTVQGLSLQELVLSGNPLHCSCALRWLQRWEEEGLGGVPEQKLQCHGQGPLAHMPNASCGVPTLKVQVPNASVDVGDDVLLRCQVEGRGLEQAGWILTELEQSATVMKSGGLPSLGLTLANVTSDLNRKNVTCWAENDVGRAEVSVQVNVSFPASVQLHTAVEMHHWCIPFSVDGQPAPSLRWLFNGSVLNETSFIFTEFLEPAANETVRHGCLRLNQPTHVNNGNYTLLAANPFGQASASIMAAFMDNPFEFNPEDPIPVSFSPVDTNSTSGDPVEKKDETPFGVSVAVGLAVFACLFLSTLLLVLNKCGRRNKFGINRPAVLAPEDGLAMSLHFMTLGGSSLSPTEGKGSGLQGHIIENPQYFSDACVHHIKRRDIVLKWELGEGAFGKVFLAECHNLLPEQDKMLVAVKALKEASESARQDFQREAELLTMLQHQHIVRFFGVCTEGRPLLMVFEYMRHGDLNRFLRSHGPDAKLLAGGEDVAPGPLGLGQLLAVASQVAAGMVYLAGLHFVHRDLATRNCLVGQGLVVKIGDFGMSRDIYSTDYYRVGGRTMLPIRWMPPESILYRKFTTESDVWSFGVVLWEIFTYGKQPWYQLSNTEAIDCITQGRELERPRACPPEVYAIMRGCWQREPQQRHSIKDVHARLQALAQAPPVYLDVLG

SMILES	IC50 [nM]
COCCN1C[C@@H](NC(=O)Nc2c(C)c(-c3ccnc(C(=O)N[C@H]4CC[C@@H](O)CC4)c3)nn2-c2ccccc2)[C@H](c2ccccc2)C1 [Compound I-85]	< 100
COCCN1C[C@@H](NC(=O)Nc2c(C)c(-c3ccnc(C(=O)N[C@@H]4CCOC4)c3)nn2-c2ccccc2)[C@H](c2ccccc2)C1 [Compound I-86]	< 100
COCCN1C[C@@H](NC(=O)Nc2c(C)c(-c3ccnc(C(=O)N[C@H]4CCOC4)c3)nn2-c2ccccc2)[C@H](c2ccccc2)C1 [Compound I-87]	< 100
COCCN1C[C@@H](NC(=O)Nc2c(C)c(-c3ccnc(C(=O)NC[C@H](C)O)c3)nn2-c2ccccc2)[C@H](c2ccccc2)C1 [Compound I-88]	< 100
COCC[C@@H]1C[C@@H](NC(=O)Nc2c(C)c(-c3cc(C)c(=O)n(C)c3)nn2-c2ccccc2)[C@H](c2ccccc2)C1 [Compound I-103]	< 100
COCC[C@@H]1C[C@@H](NC(=O)Nc2c(C)c(-c3cc(C(=O)OC)c(=O)n(C)c3)nn2-c2ccccc2)[C@H](c2ccccc2)C1 [Compound I-116]	< 100
CNC(=O)c1cc(-c2nn(-c3ccccc3)c(NC(=O)N[C@@H]3C[C@@H](CCOC)C[C@H]3c3ccccc3)c2C)cn(C)c1=O [Compound I-117]	< 100
COCC[C@@H]1C[C@@H](NC(=O)Nc2c(C)c(-c3cc(C(=O)NC4CCOCC4)c(=O)n(C)c3)nn2-c2ccccc2)[C@H](c2ccccc2)C1 [Compound I-118]	< 100
COCC[C@@H]1C[C@@H](NC(=O)Nc2c(C)c(-c3cc(C(=O)NOCc4ccccc4)c(=O)n(C)c3)nn2-c2ccccc2)[C@H](c2ccccc2)C1 [Compound I-119]	< 100
COCC[C@@H]1C[C@@H](NC(=O)Nc2c(C)c(-c3cc(C(=O)NO)c(=O)n(C)c3)nn2-c2ccccc2)[C@H](c2ccccc2)C1 [Compound I-120]	< 100
CNC(=O)c1cc(-c2nn(-c3ccccc3)c(NC(=O)N[C@@H]3C[C@@H](CCOC)C[C@H]3c3ccccc3)c2C)cnc1OC [Compound I-144]	< 100
CNS(=O)(=O)c1cc(-c2nn(-c3ccccc3)c(NC(=O)N[C@@H]3C[C@@H](CCOC)C[C@H]3c3ccccc3)c2C)cn(C)c1=O [Compound I-148]	< 100
COCC[C@@H]1C[C@@H](NC(=O)Nc2c(C)c(-c3cc(C(=O)O)c(=O)n(C)c3)nn2-c2ccccc2)[C@H](c2ccccc2)C1 [Compound I-149]	< 100
COCC[C@@H]1C[C@@H](NC(=O)Nc2c(C)c(-c3ccc(N=S(C)(C)=O)nc3)nn2-c2ccccc2)[C@H](c2ccccc2)C1 [Compound I-152]	< 100
COCC[C@@H]1C[C@@H](NC(=O)Nc2c(C)c(-c3cc(C(=O)NOC)c(=O)n(C)c3)nn2-c2ccccc2)[C@H](c2ccccc2)C1 [Compound I-153]	< 100
COCC[C@@H]1C[C@@H](NC(=O)Nc2c(C)c(-c3cc(C#N)c(=O)n(C)c3)nn2-c2ccccc2)[C@H](c2ccccc2)C1 [Compound I-154]	< 100
COCCN1C[C@@H](NC(=O)Nc2c(C)c(-c3ccnc(C(=O)NO)c3)nn2-c2ccccc2)[C@H](c2ccc(F)c(F)c2)C1 [Compound I-155]	< 100
COCCN1C[C@@H](NC(=O)Nc2c(C)c(-c3ccnc(C(=O)NOC)c3)nn2-c2ccccc2)[C@H](c2ccc(F)c(F)c2)C1 [Compound I-156]	< 100
COCCN1C[C@H](NC(=O)Nc2c(C)c(-c3cnc4c(cnn4C)c3)nn2-c2ccccc2)[C@@H](c2ccnc(F)c2)C1 [Compound I-160]	> 1000
COCCN1C[C@@H](NC(=O)Nc2c(C)c(-c3cnc4c(c3)c(N=S(C)(C)=O)nn4C)nn2-c2ccccc2)[C@H](c2ccc(F)c(F)c2)C1 [Compound I-163]	< 100

Other lines, results leading:

IC50 [nM]	SMILES
< 100	COCC[C@@H]1C[C@@H](NC(=O)Nc2c(C)c(-c3cnc4c(cnn4C)c3)nn2-c2ccccc2)[C@H](c2ccnc(F)c2)N1C [Compound I-94]
< 100	CNC(=O)c1cc(-c2nn(-c3ccccc3)c(NC(=O)N[C@@H]3C[C@@H](CCOC)C[C@H]3c3ccnc(F)c3)c2C)cnc1OC [Compound I-145]
< 100	COCC[C@@H]1C[C@@H](NC(=O)Nc2c(C)c(-c3cnc(OC)nc3)nn2-c2ccccc2)[C@H](c2ccnc(F)c2)C1 [Compound I-165]
< 100	COCC[C@@H]1C[C@@H](NC(=O)Nc2c(C)c(-c3cnc(N4CC(O)C4)nc3)nn2-c2ccccc2)[C@H](c2ccnc(F)c2)C1 [Compound I-166]
< 100	COCC[C@@H]1C[C@@H](NC(=O)Nc2c(C)c(-c3cnc4c(c3)oc(=O)n4C)nn2-c2ccccc2)[C@H](c2ccnc(F)c2)N1C [Compound I-170]
< 100	COCC[C@@H]1C[C@@H](NC(=O)Nc2c(C)c(-c3cnc4c(c3)nnn4C)nn2-c2ccccc2)[C@H](c2ccnc(F)c2)N1C [Compound I-171]
< 100	COCC[C@@H]1C[C@@H](NC(=O)Nc2c(C)c(-c3ccc(OC)nc3)nn2-c2ccccc2)[C@H](c2ccnc(F)c2)N1C [Compound I-175]
< 100	CNC(=O)c1cc(-c2nn(-c3ccccc3)c(NC(=O)N[C@@H]3C[C@@H](CCOC)N(C)[C@H]3c3ccnc(F)c3)c2C)cnc1OC [Compound I-176]
< 100	COCC[C@@H]1C[C@@H](NC(=O)Nc2c3c(nn2-c2ccccc2)CCC3)[C@H](c2ccnc(F)c2)N1C [Compound I-177]
< 100	COCC[C@@H]1C[C@@H](NC(=O)Nc2c(C)c(C)nn2-c2ccccc2)[C@H](c2ccnc(F)c2)N1C [Compound I-178]
< 100	COCC[C@@H]1C[C@@H](NC(=O)Nc2c(C)c(-c3cnc(N4CC(OC)C4)nc3)nn2-c2ccccc2)[C@H](c2ccnc(F)c2)N1C [Compound I-180]

Same assay, conditions: human TrkA phosphorylation inhibition, ATP 500 μmol/L; read-out: IC50 value

SMILES	IC50 [nM]
COCC[C@@H]1C[C@@H](NC(=O)Nc2c(C)c(-c3cnc4c(cnn4C)c3)nn2-c2ccccc2)[C@H](c2ccccc2)C1 [Compound I-102]	0.66
COCCN1C[C@@H](NC(=O)Nc2c(C)c(-c3ccc(N=S(C)(C)=O)nc3)nn2-c2ccccc2)[C@H](c2ccc(F)c(F)c2)C1 [Compound I-151]	1.5
COCCN1C[C@@H](NC(=O)Nc2cc(-c3cnc4c(cnn4C)c3)nn2C)[C@H](c2ccc(F)c(F)c2)C1 [Compound I-167]	28

The remaining lines, values ahead:

IC50 [nM]	SMILES
1	COCCN1C[C@@H](NC(=O)Nc2c(C)c(-c3cnc4c(cnn4C)c3)nn2-c2ccccc2)[C@H](c2ccnc(F)c2)C1 [Compound I-159]
0.94	COCC[C@@H]1C[C@@H](NC(=O)Nc2c(C)c(-c3cnc4c(cnn4C)c3)nn2-c2ccccc2)[C@H](c2ccc(F)c(F)c2)N1C [Compound I-172]
